Measurements reported in the NIST ThermoML archive (doi:10.1021/je060271a).
Numbers after ± are expanded uncertainties.

Settings: Liquid, Vibrating tube method

## CCCC(=O)OCC(COC(=O)CCC)(COC(=O)CCC)COC(=O)CCC [pentaerythritol tetrabutyrate]
283.15 K, 30442 kPa
  mass density: 1076 ± 1.3 kg/m3
283.15 K, 30478 kPa
  mass density: 1076.1 ± 1.3 kg/m3
283.15 K, 30509 kPa
  mass density: 1076 ± 1.3 kg/m3
283.15 K, 30540 kPa
  mass density: 1076.1 ± 1.3 kg/m3
283.15 K, 30577 kPa
  mass density: 1076.1 ± 1.3 kg/m3
283.15 K, 30608 kPa
  mass density: 1076.1 ± 1.3 kg/m3
283.15 K, 30639 kPa
  mass density: 1076.1 ± 1.3 kg/m3
283.15 K, 30670 kPa
  mass density: 1076.1 ± 1.3 kg/m3
283.15 K, 30707 kPa
  mass density: 1076.1 ± 1.3 kg/m3
283.15 K, 30738 kPa
  mass density: 1076.1 ± 1.3 kg/m3
283.15 K, 30775 kPa
  mass density: 1076.2 ± 1.3 kg/m3
283.15 K, 30806 kPa
  mass density: 1076.3 ± 1.3 kg/m3
283.15 K, 30838 kPa
  mass density: 1076.2 ± 1.3 kg/m3
283.15 K, 30875 kPa
  mass density: 1076.1 ± 1.3 kg/m3
283.15 K, 30906 kPa
  mass density: 1076.2 ± 1.3 kg/m3
283.15 K, 30938 kPa
  mass density: 1076.3 ± 1.3 kg/m3
283.15 K, 30975 kPa
  mass density: 1076.3 ± 1.3 kg/m3
283.15 K, 31008 kPa
  mass density: 1076.3 ± 1.3 kg/m3
283.15 K, 31040 kPa
  mass density: 1076.3 ± 1.3 kg/m3
283.15 K, 31071 kPa
  mass density: 1076.3 ± 1.3 kg/m3
283.15 K, 31110 kPa
  mass density: 1076.4 ± 1.3 kg/m3
283.15 K, 31141 kPa
  mass density: 1076.4 ± 1.3 kg/m3
283.15 K, 31179 kPa
  mass density: 1076.4 ± 1.3 kg/m3
283.15 K, 31211 kPa
  mass density: 1076.3 ± 1.3 kg/m3
283.15 K, 31243 kPa
  mass density: 1076.4 ± 1.3 kg/m3
283.15 K, 31282 kPa
  mass density: 1076.4 ± 1.3 kg/m3
283.15 K, 31314 kPa
  mass density: 1076.4 ± 1.3 kg/m3
283.15 K, 31346 kPa
  mass density: 1076.4 ± 1.3 kg/m3
283.15 K, 31385 kPa
  mass density: 1076.5 ± 1.3 kg/m3
283.15 K, 31418 kPa
  mass density: 1076.6 ± 1.3 kg/m3
283.15 K, 31450 kPa
  mass density: 1076.4 ± 1.3 kg/m3
283.15 K, 31490 kPa
  mass density: 1076.5 ± 1.3 kg/m3
283.15 K, 31523 kPa
  mass density: 1076.5 ± 1.3 kg/m3
283.15 K, 31556 kPa
  mass density: 1076.5 ± 1.3 kg/m3
283.15 K, 31595 kPa
  mass density: 1076.5 ± 1.3 kg/m3
283.15 K, 31628 kPa
  mass density: 1076.7 ± 1.3 kg/m3
283.15 K, 31662 kPa
  mass density: 1076.7 ± 1.3 kg/m3
283.15 K, 31695 kPa
  mass density: 1076.6 ± 1.3 kg/m3
283.15 K, 31735 kPa
  mass density: 1076.6 ± 1.3 kg/m3
283.15 K, 31768 kPa
  mass density: 1076.7 ± 1.3 kg/m3
283.15 K, 31807 kPa
  mass density: 1076.7 ± 1.3 kg/m3
283.15 K, 31841 kPa
  mass density: 1076.9 ± 1.3 kg/m3
283.15 K, 31875 kPa
  mass density: 1076.7 ± 1.3 kg/m3
283.15 K, 31909 kPa
  mass density: 1076.8 ± 1.3 kg/m3
283.15 K, 31949 kPa
  mass density: 1076.8 ± 1.3 kg/m3
283.15 K, 31983 kPa
  mass density: 1076.9 ± 1.3 kg/m3
283.15 K, 32023 kPa
  mass density: 1076.9 ± 1.3 kg/m3
283.15 K, 32057 kPa
  mass density: 1076.8 ± 1.3 kg/m3
283.15 K, 32092 kPa
  mass density: 1076.8 ± 1.3 kg/m3
283.15 K, 32133 kPa
  mass density: 1076.8 ± 1.3 kg/m3
283.15 K, 32167 kPa
  mass density: 1076.9 ± 1.3 kg/m3
283.15 K, 32202 kPa
  mass density: 1076.9 ± 1.3 kg/m3
283.15 K, 32236 kPa
  mass density: 1076.9 ± 1.3 kg/m3
283.15 K, 32278 kPa
  mass density: 1077 ± 1.3 kg/m3
283.15 K, 32312 kPa
  mass density: 1076.9 ± 1.3 kg/m3
283.15 K, 32347 kPa
  mass density: 1077 ± 1.3 kg/m3
283.15 K, 32390 kPa
  mass density: 1077 ± 1.3 kg/m3
283.15 K, 32417 kPa
  mass density: 1077.1 ± 1.3 kg/m3
283.15 K, 32453 kPa
  mass density: 1077.1 ± 1.3 kg/m3
283.15 K, 32494 kPa
  mass density: 1077.2 ± 1.3 kg/m3
283.15 K, 32536 kPa
  mass density: 1077.1 ± 1.3 kg/m3
283.15 K, 32572 kPa
  mass density: 1077.1 ± 1.3 kg/m3
283.15 K, 32614 kPa
  mass density: 1077.1 ± 1.3 kg/m3
283.15 K, 32650 kPa
  mass density: 1077 ± 1.3 kg/m3
283.15 K, 32692 kPa
  mass density: 1077.2 ± 1.3 kg/m3
283.15 K, 32728 kPa
  mass density: 1077.1 ± 1.3 kg/m3
283.15 K, 32764 kPa
  mass density: 1077.2 ± 1.3 kg/m3
283.15 K, 32806 kPa
  mass density: 1077.1 ± 1.3 kg/m3
283.15 K, 32845 kPa
  mass density: 1077.2 ± 1.3 kg/m3
283.15 K, 32881 kPa
  mass density: 1077.2 ± 1.3 kg/m3
283.15 K, 32918 kPa
  mass density: 1077.2 ± 1.3 kg/m3
283.15 K, 32954 kPa
  mass density: 1077.3 ± 1.3 kg/m3
283.15 K, 32998 kPa
  mass density: 1077.3 ± 1.3 kg/m3
283.15 K, 33034 kPa
  mass density: 1077.2 ± 1.3 kg/m3
283.15 K, 33071 kPa
  mass density: 1077.4 ± 1.3 kg/m3
283.15 K, 33114 kPa
  mass density: 1077.3 ± 1.4 kg/m3
283.15 K, 33151 kPa
  mass density: 1077.4 ± 1.4 kg/m3
283.15 K, 33188 kPa
  mass density: 1077.3 ± 1.3 kg/m3
283.15 K, 33232 kPa
  mass density: 1077.5 ± 1.4 kg/m3
283.15 K, 33270 kPa
  mass density: 1077.5 ± 1.4 kg/m3
283.15 K, 33308 kPa
  mass density: 1077.4 ± 1.4 kg/m3
283.15 K, 33355 kPa
  mass density: 1077.6 ± 1.4 kg/m3
283.15 K, 33391 kPa
  mass density: 1077.5 ± 1.4 kg/m3
283.15 K, 33429 kPa
  mass density: 1077.5 ± 1.4 kg/m3
283.15 K, 33473 kPa
  mass density: 1077.6 ± 1.4 kg/m3
283.15 K, 33511 kPa
  mass density: 1077.5 ± 1.4 kg/m3
283.15 K, 33548 kPa
  mass density: 1077.5 ± 1.4 kg/m3
283.15 K, 33586 kPa
  mass density: 1077.6 ± 1.4 kg/m3
283.15 K, 33631 kPa
  mass density: 1077.7 ± 1.4 kg/m3
283.15 K, 33670 kPa
  mass density: 1077.7 ± 1.4 kg/m3
283.15 K, 33708 kPa
  mass density: 1077.7 ± 1.4 kg/m3
283.15 K, 33754 kPa
  mass density: 1077.7 ± 1.4 kg/m3
283.15 K, 33792 kPa
  mass density: 1077.6 ± 1.4 kg/m3
283.15 K, 33838 kPa
  mass density: 1077.7 ± 1.4 kg/m3
283.15 K, 33878 kPa
  mass density: 1077.8 ± 1.4 kg/m3
283.15 K, 33917 kPa
  mass density: 1077.8 ± 1.4 kg/m3
283.15 K, 34179 kPa
  mass density: 1077.9 ± 1.4 kg/m3
283.15 K, 34232 kPa
  mass density: 1078 ± 1.4 kg/m3
283.15 K, 34278 kPa
  mass density: 1078 ± 1.4 kg/m3
283.15 K, 34325 kPa
  mass density: 1078 ± 1.4 kg/m3
283.15 K, 34380 kPa
  mass density: 1078.1 ± 1.4 kg/m3
283.15 K, 34408 kPa
  mass density: 1078.1 ± 1.4 kg/m3
283.15 K, 34413 kPa
  mass density: 1078.1 ± 1.4 kg/m3
283.15 K, 34443 kPa
  mass density: 1078.1 ± 1.4 kg/m3
283.15 K, 34447 kPa
  mass density: 1078.3 ± 1.4 kg/m3
283.15 K, 34450 kPa
  mass density: 1078 ± 1.4 kg/m3
283.15 K, 34451 kPa
  mass density: 1078 ± 1.4 kg/m3
283.15 K, 34455 kPa
  mass density: 1078.1 ± 1.4 kg/m3
283.15 K, 34530 kPa
  mass density: 1078.2 ± 1.4 kg/m3
283.15 K, 34544 kPa
  mass density: 1078.1 ± 1.4 kg/m3
283.15 K, 34545 kPa
  mass density: 1078.1 ± 1.4 kg/m3
283.16 K, 104.2 kPa
  mass density: 1059 ± 1.3 kg/m3
283.16 K, 104.7 kPa
  mass density: 1059.1 ± 1.3 kg/m3
283.16 K, 105.7 kPa
  mass density: 1059 ± 1.3 kg/m3
283.16 K, 107.3 kPa
  mass density: 1059 ± 1.3 kg/m3
283.16 K, 108.9 kPa
  mass density: 1059.1 ± 1.3 kg/m3
283.16 K, 113.9 kPa
  mass density: 1059 ± 1.3 kg/m3
283.16 K, 119.6 kPa
  mass density: 1059.1 ± 1.3 kg/m3
283.16 K, 129.7 kPa
  mass density: 1059 ± 1.3 kg/m3
283.16 K, 145 kPa
  mass density: 1059.2 ± 1.3 kg/m3
283.16 K, 173.9 kPa
  mass density: 1059.1 ± 1.3 kg/m3
283.16 K, 201.7 kPa
  mass density: 1059.2 ± 1.3 kg/m3
283.16 K, 220.1 kPa
  mass density: 1059.2 ± 1.3 kg/m3
283.16 K, 241.7 kPa
  mass density: 1059.2 ± 1.3 kg/m3
283.16 K, 261.3 kPa
  mass density: 1059.2 ± 1.3 kg/m3
283.16 K, 284.4 kPa
  mass density: 1059.2 ± 1.3 kg/m3
283.16 K, 305.4 kPa
  mass density: 1059.2 ± 1.3 kg/m3
283.16 K, 329.3 kPa
  mass density: 1059.3 ± 1.3 kg/m3
283.16 K, 363.7 kPa
  mass density: 1059.2 ± 1.3 kg/m3
283.16 K, 391.3 kPa
  mass density: 1059.1 ± 1.9 kg/m3
283.16 K, 432.3 kPa
  mass density: 1059.2 ± 1.3 kg/m3
283.16 K, 466.5 kPa
  mass density: 1059.2 ± 1.3 kg/m3
283.16 K, 498.2 kPa
  mass density: 1059.2 ± 1.3 kg/m3
283.16 K, 527.5 kPa
  mass density: 1059.2 ± 1.3 kg/m3
283.16 K, 550.1 kPa
  mass density: 1059.3 ± 1.3 kg/m3
283.16 K, 577.4 kPa
  mass density: 1059.3 ± 1.3 kg/m3
283.16 K, 602.2 kPa
  mass density: 1059.4 ± 1.3 kg/m3
283.16 K, 628.6 kPa
  mass density: 1059.3 ± 1.3 kg/m3
283.16 K, 657.3 kPa
  mass density: 1059.4 ± 1.3 kg/m3
283.16 K, 694.8 kPa
  mass density: 1059.2 ± 1.3 kg/m3
283.16 K, 725.1 kPa
  mass density: 1059.3 ± 1.3 kg/m3
283.16 K, 756.3 kPa
  mass density: 1059.4 ± 1.3 kg/m3
283.16 K, 786.4 kPa
  mass density: 1059.4 ± 1.3 kg/m3
283.16 K, 816.8 kPa
  mass density: 1059.4 ± 1.3 kg/m3
283.16 K, 854 kPa
  mass density: 1059.4 ± 1.3 kg/m3
283.16 K, 886.5 kPa
  mass density: 1059.4 ± 1.3 kg/m3
283.16 K, 919.6 kPa
  mass density: 1059.5 ± 1.3 kg/m3
